# From patent US10793575B2, “Oxoisoquinoline derivatives” (CARNA BIOSCIENCES, INC., priority 2016, dated 2020)
# Tested on: OCI-Ly10 cells
# Assay: Proliferation-Inhibitory Test Against Diffuse Large-Cell B-Cell Lymphoma OCI-Ly10 Strain
# Type: cell-based
# Conditions: Homo sapiens, 96 hours, alamarBlue
# Procedure: OCI-Ly10 cells were cultured in IMDM medium (Iscove's Modified Dulbecco's Medium, Manufactured by Thermo Fisher Scientific Inc., hereinafter “medium”) containing 20% Fetal bovine serum and 1% penicillin-streptomycin (Nacalai Tesque, Inc.) in a 5% CO2 incubator. OCI-Ly10 cells were seeded to 96-well plate (20000 cells/well), compounds diluted with medium were added with final concentrations of 0.9 nM to 30000 nM (Final DMSO concentration, 0.3%), incubated for 96 hours and alamorBlue reagent (Thermo Fisher Scientific Inc.) was added.
row,Compound,IC50 [nM]
1,"Nc1nc(-c2cccc(-n3ccc4cc(C5CC5)cc(F)c4c3=O)c2CO)c2cc(-c3cccc(F)c3)[nH]c2n1 [Example 29, 2-{3-[2-amino-6-(3-fluorophenyl)-7H-pyrrolo[2,3-d]pyrimidin-4-yl]-2-(hydroxymethyl)phenyl}-6-cyclopropyl-8-fluoroisoquinolin-1(2H)-one]",332
2,"Cn1cc(-c2nc3c(-c4cccc(-n5ccc6cc(C7CC7)cc(F)c6c5=O)c4CO)nc(N)nc3[nH]2)cn1 [Example 31, 2-{3-[2-amino-8-(1-methyl-1H-pyrazol-4-yl)-9H-purin-6-yl]-2-(hydroxymethyl)phenyl}-6-cyclopropyl-8-fluoroisoquinolin-1(2H)-one]",45
3,"CC(C)S(=O)(=O)N1CC=C(c2cc3c(-c4cccc(-n5ccc6cc(C7CC7)cc(F)c6c5=O)c4CO)nc(N)nc3[nH]2)CC1 [Example 90, 2-(3-{2-amino-6-[1-(isopropylsulfonyl)-1,2,3,6-tetrahydropyridin-4-yl]-7H-pyrrolo[2,3-d]pyrimidin-4-yl}-2-(hydroxymethyl)phenyl)-6-cyclopropyl-8-fluoroisoquinolin-1(2H)-one]",13

# Other lines, results leading:
row,IC50 [nM],Compound
1,197,"Nc1nc(-c2cccc(-n3ccc4cc(C5CC5)cc(F)c4c3=O)c2CO)c2cc(-c3ccccc3F)[nH]c2n1 [Example 33, 2-{3-[2-amino-6-(2-fluorophenyl)-7H-pyrrolo[2,3-d]pyrimidin-4-yl]-2-(hydroxymethyl)phenyl}-6-cyclopropyl-8-fluoroisoquinolin-1(2H)-one]"
2,102,"Nc1nc(-c2cccc(-n3ccc4cc(C5CC5)cc(F)c4c3=O)c2CO)c2cc(-c3ccc(F)cc3)[nH]c2n1 [Example 34, 2-{3-[2-amino-6-(4-fluorophenyl)-7H-pyrrolo[2,3-d]pyrimidin-4-yl]-2-(hydroxymethyl)phenyl}-6-cyclopropyl-8-fluoroisoquinolin-1(2H)-one]"
3,24,"CN(C)CC(=O)N1CC=C(c2cc3c(-c4cccc(-n5ccc6cc(C7CC7)cc(F)c6c5=O)c4CO)nc(N)nc3[nH]2)CC1 [Example 85, 2-[3-(2-amino-6-{1-[2-(dimethylamino)acetyl]-1,2,3,6-tetrahydropyridin-4-yl}-7H-pyrrolo[2,3-d]pyrimidin-4-yl)-2-(hydroxymethyl)phenyl]-6-cyclopropyl-8-fluoroisoquinolin-1(2H)-one]"
4,13,"Nc1nc(-c2cccc(-n3ccc4cc(C5CC5)cc(F)c4c3=O)c2CO)c2cc(C3=CCN(C(=O)CN4CCOCC4)CC3)[nH]c2n1 [Example 86, 2-(3-{2-amino-6-[1-(2-morpholinoacetyl)-1,2,3,6-tetrahydropyridin-4-yl]-7H-pyrrolo[2,3-d]pyrimidin-4-yl}-2-(hydroxymethyl)phenyl)-6-cyclopropyl-8-fluoroisoquinolin-1(2H)-one]"
5,61,"Nc1nc(-c2cccc(-n3ccc4cc(C5CC5)cc(F)c4c3=O)c2CO)c2cc(C3=CCN(CC4CC4)CC3)[nH]c2n1 [Example 92, 2-(3-{2-amino-6-[1-(cyclopropylmethyl)-1,2,3,6-tetrahydropyridin-4-yl]-7H-pyrrolo[2,3-d]pyrimidin-4-yl}-2-(hydroxymethyl)phenyl)-6-cyclopropyl-8-fluoroisoquinolin-1(2H)-one]"

# Molecular target: dephosphorylated BTK (Homo sapiens (Human), UniProt Q06187)
# Sequence (Q06187 whole entry): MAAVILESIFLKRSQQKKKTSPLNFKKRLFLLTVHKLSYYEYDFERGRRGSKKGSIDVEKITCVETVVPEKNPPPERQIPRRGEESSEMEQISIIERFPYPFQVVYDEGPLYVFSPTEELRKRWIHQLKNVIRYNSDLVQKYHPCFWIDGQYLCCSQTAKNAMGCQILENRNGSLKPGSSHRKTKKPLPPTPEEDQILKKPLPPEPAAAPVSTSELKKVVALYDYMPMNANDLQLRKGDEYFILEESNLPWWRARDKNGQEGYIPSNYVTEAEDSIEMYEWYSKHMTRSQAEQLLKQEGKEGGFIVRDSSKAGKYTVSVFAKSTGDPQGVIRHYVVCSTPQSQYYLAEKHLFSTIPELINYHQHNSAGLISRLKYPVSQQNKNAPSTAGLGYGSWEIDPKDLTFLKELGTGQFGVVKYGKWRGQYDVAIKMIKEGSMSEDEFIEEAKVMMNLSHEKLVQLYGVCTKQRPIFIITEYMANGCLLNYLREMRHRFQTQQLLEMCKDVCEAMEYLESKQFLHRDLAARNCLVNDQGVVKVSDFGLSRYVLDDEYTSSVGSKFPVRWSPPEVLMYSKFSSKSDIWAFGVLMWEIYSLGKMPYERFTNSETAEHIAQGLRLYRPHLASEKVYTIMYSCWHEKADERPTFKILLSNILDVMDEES
# Assay: BTK Activity Inhibition Test (mobility shift assay)
# Type: biochemical
# Conditions: 200 μM ATP, read-out: Inhibitory Activity on BTK
# Procedure: Dephosphorylated BTK was obtained by adding λ protein phosphatase (manufactured by New England BioLabs Inc., Code No. P0753S) and MnCl2 at 10 U/μg and 2 mM, respectively, to biotinylated BTK protein BTN-BTK (Manufactured by Carna Biosciences, Inc.) enzyme solution, reacting the mixture at 4° C. overnight, and removing of λ protein phosphatase by anti […]-tag antibody agarose gel chromatography, followed by buffer exchange using a 10DG Desalting Column.
# The kinase activity was measured using QuickScout Screening Assist (trade mark) MSA (commercially available kit manufactured by Carna Biosciences, Inc.) by mobility shift assay (MSA) method. The substrate of the kinase reaction was an FITC-labeled SRCtide peptide included in the kit. An assay buffer [20 mM HEPES, 0.01% Triton X-100 (Trade mark), 2 mM dithiothreitol, pH 7.5] was used and adjusted at 4 μM substrate, 20 mM MgCl2 and 200 μm ATP to obtain a substrate mixture solution. The enzyme solution was also prepared by diluting the dephosphorylated BTK to 0.46 nM using the assay buffer. The 10 mM solution of the test compound in DMSO was further diluted with DMSO to 10 levels of the concentration (0.00003 mM, 0.0001 mM, 0.0003 mM, 0.001 mM, 0.003 mM, 0.01 mM, 0.03 mM, 0.1 mM, 0.3 mM, 1 mM), each of which was subjected to a 25-fold dilution with the assay buffer to obtain the drug solutions (4% DMSO solutions). 5 μL of the drug solution or a control solution (4% DMSO-assay buffer), 5 μL of the substrate mixture solution, and 10 μL of the enzyme solution were mixed in the wells of a polypropylene 384-well plate and allowed to react at room temperature for 2 hours, and then quenched by adding 60 μL of the termination buffer included in the kit. Subsequently, the quantities of the substrates (S) and the phosphorylated substrate (P) in the reaction solution were measured using LabChip EZ Reader II system (manufactured by Caliper Life Sciences) according to the protocol of the assay kit.
# The heights of the peaks of the isolated substrate and the phosphorylated substrate were represented as S and P, respectively, and a blank which contained the assay buffer instead of the enzyme solution was also measured.
# The inhibition rate (%) of the test compound was calculated according to the following equation; Inhibition rate (%)=(1−(C−A)/(B−A))×100 • wherein, A, B and C represent P/(P+S) of the blank well, P/(P+S) of the control well and P/(P+S) of the compound-containing well, respectively.
# The IC50 value was calculated via a regression analysis of the inhibition rate (%) and the test compound concentration (logarithmic value).
row,Compound,IC50 [nM]
1,"Nc1nc(-c2cccc(-n3ccc4cc(C5CC5)cc(F)c4c3=O)c2CO)c2nc[nH]c2n1 [Example 4, 2-[3-(2-amino-9H-purin-6-yl)-2-(hydroxymethyl)phenyl]-6-cyclopropyl-8-fluoroisoquinolin-1(2H)-one]",< 10
2,"Nc1nc(-c2cccc(-n3ccc4cc(C5CC5)cc(F)c4c3=O)c2CO)c2cc[nH]c2n1 [Example 6, 2-[3-(2-amino-7H-pyrrolo[2,3-d]pyrimidin-4-yl)-2-(hydroxymethyl)phenyl]-6-cyclopropyl-8-fluoroisoquinolin-1(2H)-one]",< 10
3,"Cc1cc2c(-c3cccc(-n4ccc5cc(C6CC6)cc(F)c5c4=O)c3CO)nc(N)nc2[nH]1 [Example 7, 2-[3-(2-amino-6-methyl-7H-pyrrolo[2,3-d]pyrimidin-4-yl)-2-(hydroxymethyl)phenyl]-6-cyclopropyl-8-fluoroisoquinolin-1(2H)-one]",< 10
4,"Cc1n[nH]c2nc(N)nc(-c3cccc(-n4ccc5cc(C6CC6)cc(F)c5c4=O)c3CO)c12 [Example 10, 2-[3-(6-amino-3-methyl-1H-pyrazolo[3,4-d]pyrimidin-4-yl)-2-(hydroxymethyl)phenyl]-6-cyclopropyl-8-fluoroisoquinolin-1(2H)-one]",< 10
5,"Nc1nc(-c2cccc(-n3ccc4cc(C5CC5)cc(F)c4c3=O)c2CO)c2cc(-c3ccncc3)[nH]c2n1 [Example 19, 2-{3-[2-amino-6-(pyridin-4-yl)-7H-pyrrolo[2,3-d]pyrimidin-4-yl]-2-(hydroxymethyl)phenyl}-6-cyclopropyl-8-fluoroisoquinolin-1(2H)-one]",< 10
6,"COc1ccc(-c2n[nH]c3nc(N)nc(-c4cccc(-n5ccc6cc(C7CC7)cc(F)c6c5=O)c4CO)c23)cc1 [Example 20, 2-{3-[6-amino-3-(4-methoxyphenyl)-1H-pyrazolo[3,4-d]pyrimidin-4-yl]-2-(hydroxymethyl)phenyl}-6-cyclopropyl-8-fluoroisoquinolin-1(2H)-one]",< 10
7,"COc1ccccc1-c1n[nH]c2nc(N)nc(-c3cccc(-n4ccc5cc(C6CC6)cc(F)c5c4=O)c3CO)c12 [Example 21, 2-{3-[6-amino-3-(2-methoxyphenyl)-1H-pyrazolo[3,4-d]pyrimidin-4-yl]-2-(hydroxymethyl)phenyl}-6-cyclopropyl-8-fluoroisoquinolin-1(2H)-one]",< 10
8,"COc1ccccc1-c1nc2c(-c3cccc(-n4ccc5cc(C6CC6)cc(F)c5c4=O)c3CO)nc(N)nc2[nH]1 [Example 24, 2-{3-[2-amino-8-(2-methoxyphenyl)-9H-purin-6-yl]-2-(hydroxymethyl)phenyl}-6-cyclopropyl-8-fluoroisoquinolin-1(2H)-one]",< 10
9,"Nc1nc(-c2cccc(-n3ccc4cc(C5CC5)cc(F)c4c3=O)c2CO)c2cc(-c3cccc(F)c3)[nH]c2n1 [Example 29, 2-{3-[2-amino-6-(3-fluorophenyl)-7H-pyrrolo[2,3-d]pyrimidin-4-yl]-2-(hydroxymethyl)phenyl}-6-cyclopropyl-8-fluoroisoquinolin-1(2H)-one]",< 10
10,"C=CC(=O)NCc1cc2c(-c3cccc(-n4ccc5cc(C6CC6)cc(F)c5c4=O)c3CO)nc(N)nc2[nH]1 [Example 30, N-({2-amino-4-[3-(6-cyclopropyl-8-fluoro-1-oxoisoquinolin-2(1H)-yl)-2-(hydroxymethyl)phenyl]-7H-pyrrolo[2,3-d]pyrimidin-6-yl}methyl)acrylamide]",10 to 100
11,"Cn1cc(-c2nc3c(-c4cccc(-n5ccc6cc(C7CC7)cc(F)c6c5=O)c4CO)nc(N)nc3[nH]2)cn1 [Example 31, 2-{3-[2-amino-8-(1-methyl-1H-pyrazol-4-yl)-9H-purin-6-yl]-2-(hydroxymethyl)phenyl}-6-cyclopropyl-8-fluoroisoquinolin-1(2H)-one]",< 10

# Now from value to molecule:
row,IC50 [nM],Compound
1,< 10,"Nc1nc(-c2cccc(-n3ccc4cc(C5CC5)cc(F)c4c3=O)c2CO)c2cc(C3CC3)[nH]c2n1 [Example 9, 2-[3-(2-amino-6-cyclopropyl-7H-pyrrolo[2,3-d]pyrimidin-4-yl)-2-(hydroxymethyl)phenyl]-6-cyclopropyl-8-fluoroisoquinolin-1(2H)-one]"
2,10 to 100,"Nc1nc(-c2cccc(-n3ccc4cc(C5CC5)cc(F)c4c3=O)c2CO)c2cc(CO)[nH]c2n1 [Example 11, 2-{3-[2-amino-6-(hydroxymethyl)-7H-pyrrolo[2,3-d]pyrimidin-4-yl]-2-(hydroxymethyl)phenyl}-6-cyclopropyl-8-fluoroisoquinolin-1(2H)-one]"
3,< 10,"Nc1nc(-c2cccc(-n3ccc4cc(C5CC5)cc(F)c4c3=O)c2CO)c2nc(C3CC3)[nH]c2n1 [Example 12, 2-[3-(2-amino-8-cyclopropyl-9H-purin-6-yl)-2-(hydroxymethyl)phenyl]-6-cyclopropyl-8-fluoroisoquinolin-1(2H)-one]"
4,< 10,"COc1cccc(-c2n[nH]c3nc(N)nc(-c4cccc(-n5ccc6cc(C7CC7)cc(F)c6c5=O)c4CO)c23)c1 [Example 22, 2-{3-[6-amino-3-(3-methoxyphenyl)-1H-pyrazolo[3,4-d]pyrimidin-4-yl]-2-(hydroxymethyl)phenyl}-6-cyclopropyl-8-fluoroisoquinolin-1(2H)-one]"
5,< 10,"Nc1nc(-c2cccc(-n3ccc4cc(C5CC5)cc(F)c4c3=O)c2CO)c2c(-c3ccccc3)c[nH]c2n1 [Example 28, 2-[3-(2-amino-5-phenyl-7H-pyrrolo[2,3-d]pyrimidin-4-yl)-2-(hydroxymethyl)phenyl]-6-cyclopropyl-8-fluoroisoquinolin-1(2H)-one]"
6,< 10,"Nc1nc(-c2cccc(-n3ccc4cc(C5CC5)cc(F)c4c3=O)c2CO)c2cc(-c3ccccc3F)[nH]c2n1 [Example 33, 2-{3-[2-amino-6-(2-fluorophenyl)-7H-pyrrolo[2,3-d]pyrimidin-4-yl]-2-(hydroxymethyl)phenyl}-6-cyclopropyl-8-fluoroisoquinolin-1(2H)-one]"
7,< 10,"Nc1nc(-c2cccc(-n3ccc4cc(C5CC5)cc(F)c4c3=O)c2CO)c2cc(-c3ccc(F)cc3)[nH]c2n1 [Example 34, 2-{3-[2-amino-6-(4-fluorophenyl)-7H-pyrrolo[2,3-d]pyrimidin-4-yl]-2-(hydroxymethyl)phenyl}-6-cyclopropyl-8-fluoroisoquinolin-1(2H)-one]"
